For series [1], the target named is Beta-lactamase (Pseudomonas aeruginosa) (UniProt Q79MP6). Nature of the series: Uncompetitive inhibition of Pseudomonas aeruginosa beta-lactamase IMP-1 assessed as formation of 4-nitrothiophenolate at pH 7 using CENTA as chromogenic substrate.
The target is the same in series [2]. Briefly: Inhibition of Pseudomonas aeruginosa beta-lactamase IMP-1 expressed in Escherichia coli BL21(DE3) at 10 uM using CENTA as chromogenic substrate.
The target is the same in series [3]. Nature of the series: Competitive inhibition of Pseudomonas aeruginosa beta-lactamase IMP-1 assessed as formation of 4-nitrothiophenolate at pH 7 using CENTA as chromogenic substrate.
The target is the same in series [4]. Nature of the series: Inhibition of Pseudomonas aeruginosa beta-lactamase IMP-1 expressed in Escherichia coli BL21(DE3) at 100 uM using CENTA as chromogenic substrate.
For series [5] the target is unchanged. Briefly: Inhibition of Pseudomonas aeruginosa beta-lactamase IMP-1 expressed in Escherichia coli BL21(DE3) at 1000 uM using CENTA as chromogenic substrate.
A short description of series [6]: Solubility of the compound. It is filed as physicochemical.

Where only a bound is given, the exact number is not on record here.

Chain of Beta-lactamase (Pseudomonas aeruginosa) (Q79MP6 19-246 limits assumed): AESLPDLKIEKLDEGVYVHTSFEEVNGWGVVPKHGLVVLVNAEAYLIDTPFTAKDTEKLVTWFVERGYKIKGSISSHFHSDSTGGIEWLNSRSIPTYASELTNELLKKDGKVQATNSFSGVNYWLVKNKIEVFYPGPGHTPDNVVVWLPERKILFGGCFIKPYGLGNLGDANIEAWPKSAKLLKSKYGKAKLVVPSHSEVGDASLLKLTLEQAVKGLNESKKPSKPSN

For `C[C@H](CS)C(=O)N1CCC[C@H]1C(=O)O`, the Kiuc in series [1] was over 2000 µM.

For `NC(=S)NNC(=O)CCC(=O)O`, the inhibition (usually the share of the control response that was lost under treatment) in series [2] was 13%.

As to `NC(=S)NNC(=O)c1ccc(Cc2ccccc2)cc1`, the inhibition in series [2] came to 26%. For the same compound, the Kic in series [3] was found to be 18 µM. In addition, in series [1], the Kiuc was found to be 37 µM.

Regarding `O=C(c1ccccc1)c1ccc(-c2nnc(S)[nH]2)cc1`, the results for the inhibition in series [4] and in series [2] were 44% and 10%, respectively. For the same compound, the Kic in series [3] was determined as 75 µM. Further, the Kiuc in series [1] is 56 µM.

`Cn1c(S)nnc1C(F)(F)F`: the inhibition in series [5] worked out at 51%.

The compound `NC(=S)NNC(=O)c1ccc(C(=O)c2ccccc2)cc1` showed an inhibition in series [2] of 34%. The Kic in series [3] came to 13 µM. The Kiuc in series [1] was 26 µM.

For `CCc1nnc(S)[nH]1`, in series [5], the inhibition was 32%.

As for `NC(=S)NNC(=O)c1ccccc1C(=O)O`, the inhibition in series [2] is 0%.

`CCCCCCc1nnc(S)[nH]1`: in series [6], the solubility result was “Insoluble”.

Compound `NC(S)=NNC(=O)c1ccccc1` returned an inhibition in series [2] of 22%. The Kic in series [3] was 19 µM. Also, the Kiuc in series [1] turned out to be 30 µM.

In turn, `NC(=S)NNC(=O)c1ccc(C(=O)c2ccccc2Cl)cc1` yielded an inhibition in series [2] of 51%. In series [3], the Kic was found to be 14 µM. Moreover, in series [1], the Kiuc was determined as 13 µM.

On to `O=C(O)c1ccccc1-c1nnc(S)[nH]1`, for which the inhibition in series [4] is 7%; in series [2], 0%.

In series [2], `Cc1ccc(C(=O)c2ccc(C(=O)NNC(N)=S)cc2)cc1` showed an inhibition of 38%. The Kic in series [3] came out at 41 µM. The Kiuc in series [1] worked out at 20 µM.

On to `O=C(O)CCc1nnc(S)[nH]1`, for which the inhibition in series [4] and in series [2] was 10% throughout.

As to `Cc1nnc(S)[nH]1`, in series [5], the inhibition stood at 33%.

With `Cc1nnc[nH]1`, in series [5], the inhibition is 0%.

On to `CCCCCCSc1nnc(C(C)(C)C)[nH]1`, for which, in series [6], the solubility result is “Insoluble”.

Consider `CNC(=S)NNC(=O)C(C)(C)C`, for which the inhibition in series [2] worked out at 0%.

In series [5], `Sc1n[nH]c(-c2ccccc2)n1` came in with an inhibition of 0%.

`NC(=S)NNC(=O)CCCC(=O)O` returned an inhibition in series [2] of 8%.

As to `O=C(O)CCCc1nnc(S)[nH]1`, the figures for the inhibition in series [4] and in series [2] were 5% and 0%, respectively.

`CSc1nnc(C(C)(C)C)[nH]1` showed an inhibition in series [5] of 10%.

With `O=[N+]([O-])c1cccc(-c2nnc(S)[nH]2)c1`, in series [6], the solubility entry was “Insoluble”.

As for `NC(=S)NNC(=O)c1cccc([N+](=O)[O-])c1`, in series [2], the inhibition turned out to be 30%.

With `CC(C)(C)c1nnc(S)[nH]1`, the inhibition in series [5] came to 32%.

Compound `CC(C)(C)C(=O)NNC(N)=S` showed an inhibition in series [2] of 0%.

As to `NC(=S)NNC(=O)c1ccc(C(=O)c2cccc([N+](=O)[O-])c2)cc1`, the inhibition in series [2] was found to be 45%. In addition, in series [3], the Kic amounted to 16 µM. In addition, the Kiuc in series [1] worked out at 15 µM.

For the compound `NC(=S)NNC(=O)c1ccc(C(=O)c2ccc([N+](=O)[O-])cc2)cc1`, in series [2], the inhibition was found to be 45%. For the same compound, in series [3], the Kic was determined as 11 µM. The Kiuc in series [1] came to 20 µM.

Regarding `FC(F)(F)c1nnc(S)[nH]1`, the inhibition in series [5] was determined as 45%.
